According to the RepoRT retention time repository:

Assay: HILIC, Waters ACQUITY UPLC BEH Amide, 100 × 2.1 mm, 1.7 µm; A: water + 0.125% formic acid + 10 mM ammonium formate; B: 5% water + 95% acetonitrile + 0.125% formic acid + 10 mM ammonium formate; gradient (min/%B) 0/100 2/100 7.7/70 9.5/40 10.25/30 12.75/100 17/100
Conditions: stereoisomer not certain

Compared with `CC(C)CC(NC(=O)OCc1ccccc1)C(=O)O` (centres undefined) [N-Carbobenzyloxyleucine], `CNC(Cc1ccccc1)C(=O)O` (centres undefined) [N-Methylphenylalanine] is 4.9-fold higher in LC retention time: 1.28 min for the first, 6.22 min for the second.

Compared with `O=C(O)CNC(=O)C=Cc1ccccc1` [N-Cinnamoylglycine], `O=C(O)CNC(=O)c1cccnc1` [Nicotinoylglycine] is 2.4-fold higher in LC retention time: 2.95 min for the first, 7.08 min for the second.

Compared with `O=CNC1CCCCC1` [N-Cyclohexylformamide], `CC[N+](C)(CC)CCOC(=O)C(O)(c1ccccc1)C1CCCCC1` (centres undefined) [Oxyphenonium] is 1.7-fold higher in LC retention time: 1.2 min for the first, 2.01 min for the second.

Going from `CSCCC(NC=O)C(=O)O` (centres undefined) [N-Formylmethionine] to `CNC(CCC(=O)O)C(=O)O` (centres undefined) [N-Methylglutamic acid], the LC retention time rises from 3.93 min to 8.32 min (2.1-fold).

`CC(C)C(=O)NCC(=O)O` [N-Isobutyrylglycine] and `CC(C)CC(=O)NCC(=O)O` [N-Isovalerylglycine] are within 1.5-fold of each other in LC retention time: 3.6 min for the first, 2.94 min for the second.

`CNC(C)C(=O)O` (centres undefined) [N-Methylalanine] and `CNC(C(=O)O)C(C)O` (centres undefined) [N-Methylthreonine] are within 1.5-fold of each other in LC retention time: 7.67 min for the first, 7.68 min for the second.

`CNc1ccccc1` [N-Methylaniline] and `CNc1ccccc1C(=O)O` [N-Methylanthranilic acid] are within 1.5-fold of each other in LC retention time: 1.06 min for the first, 1.22 min for the second.

First: CNC(CC(=O)O)C(=O)O (centres undefined) [N-Methylaspartic acid]
Second: CNC(CC(C)C)C(=O)O (centres undefined) [N-Methylleucine]
The LC retention time of the first is 2.5-fold lower: 2.53 min for the first, 6.45 min for the second.

Going from `CNC(Cc1cnc[nH]1)C(=O)O` (centres undefined) [N-Methylhistidine] to `CC(=O)NCCc1cnc[nH]1` [N-omega-Acetylhistamine], the LC retention time falls from 9.47 min to 6 min (1.6-fold).

`CCC(C)C(NC)C(=O)O` (centres undefined) [N-Methylisoleucine] and `CNC(C(=O)O)C(C)C` (centres undefined) [N-Methylvaline] are within 1.5-fold of each other in LC retention time: 6.44 min for the first, 6.99 min for the second.

`CNCCCCC(N)C(=O)O` (centres undefined) [N-Methyllysine] and `CC(=O)NCCCCC(N)C(=O)O` (centres undefined) [N-epsilon-Acetyllysine] are within 1.5-fold of each other in LC retention time: 9.36 min for the first, 8.03 min for the second.

`CN1CCC(c2ccc(F)cc2)C(COc2ccc3c(c2)OCO3)C1` (centres undefined) [N-Methylparoxetine] and `COc1ccccc1N1CCN(CC(O)COc2cccc3ccccc23)CC1` (centres undefined) [Naftopidil] are within 1.5-fold of each other in LC retention time: 2.2 min for the first, 1.99 min for the second.

`CN1CCCC1C(=O)O` (centres undefined) [N-Methylproline] and `CN1CCCC1c1cccnc1` (centres undefined) [Nicotine] are within 1.5-fold of each other in LC retention time: 7.11 min for the first, 5.34 min for the second.

Going from `CNC(Cc1ccc(O)cc1)C(=O)O` (centres undefined) [N-Methyltyrosine] to `CC(C)C1CCC(C(=O)NC(Cc2ccccc2)C(=O)O)CC1` (centres undefined) [Nateglinide], the LC retention time falls from 6.79 min to 1.3 min (5.2-fold).

`CC(=O)NC(CCCN)C(=O)O` [N-alpha-Acetyl-L-ornithine] and `CC(=O)N[C@@H](CCCCN)C(=O)O` [N.alpha.-Acetyl-L-lysine] are within 1.5-fold of each other in LC retention time: 8.31 min for the first, 8.15 min for the second.

Going from `CNCCc1cnc[nH]1` [N-alpha-methylhistamine] to `O=C(NCCO[N+](=O)[O-])c1cccnc1` [Nicorandil], the LC retention time falls from 7.48 min to 1.11 min (6.7-fold).

`COc1ccc(NC=O)c(C(=O)CCNC(C)=O)c1` [N-gamma-Acetyl-N-2-formyl-5-methoxykynurenamine] and `COc1ccc(C(=O)O)cc1` [P-Anisic acid] are within 1.5-fold of each other in LC retention time: 1.32 min for the first, 1.3 min for the second.

`CN[C@@H](CCCCN)C(=O)O` [N.alpha.-Methyl-L-lysine] and `NCCCC(N)C(=O)O` (centres undefined) [Ornithine] are within 1.5-fold of each other in LC retention time: 7.35 min for the first, 9.6 min for the second.

`C[N+](C)(C)CCCCC(N)C(=O)[O-]` (centres undefined) [NEPSILON,NEPSILON,NEPSILON-TRIMETHYLLYSINE] and `CCCCC(N)C(=O)O` (centres undefined) [Norleucine] are within 1.5-fold of each other in LC retention time: 9.29 min for the first, 6.99 min for the second.

`CCCCN1CCCC1CNC(=O)c1cc(C#N)c2ccccc2c1OC` (centres undefined) [Nafadotride] and `CCN(CC)CC1CCCCN1CC(=O)N1c2ccccc2C(=O)Nc2cccnc21` (centres undefined) [Otenzepad] are within 1.5-fold of each other in LC retention time: 2.05 min for the first, 2.94 min for the second.

`Oc1ccc2c3c1OC1C(O)CCC4(O)C(C2)N(CC2CCC2)CCC314` (centres undefined) [Nalbuphine] and `Oc1ccc2c3c1OC1c4[nH]c5ccccc5c4CC4(O)C(C2)N(CC2CC2)CCC314` (centres undefined) [Naltrindole] are within 1.5-fold of each other in LC retention time: 5.25 min for the first, 4.45 min for the second.

First: CC12CCC3C4CCC(=O)C=C4CCC3C1CCC2O (centres undefined) [Nandrolone]
Second: O=C1c2cccc3c2C(CCC3)CN1C1CN2CCC1CC2 (centres undefined) [Palonosetron]
The LC retention time of the first is 3.8-fold lower: 1.06 min for the first, 4.05 min for the second.

`CC1OC(OC2C(Oc3cc(O)c4c(c3)OC(c3ccc(O)cc3)CC4=O)OC(CO)C(O)C2O)C(O)C(O)C1O` (centres undefined) [Naringin] and `NC(=O)c1ccc[n+](C2OC(CO)C(O)C2O)c1` (centres undefined) [Nicotinamide riboside cation] are within 1.5-fold of each other in LC retention time: 5.61 min for the first, 7.51 min for the second.

Compared with `CCc1nn(CCCN2CCN(c3cccc(Cl)c3)CC2)c(=O)n1CCOc1ccccc1` [Nefazodone], `Cc1cc2c(s1)Nc1ccccc1N=C2N1CCN(C)CC1` [Olanzapine] is 2.4-fold higher in LC retention time: 1.88 min for the first, 4.56 min for the second.

First: Cc1c(O)cccc1C(=O)NC(CSc1ccccc1)C(O)CN1CC2CCCCC2CC1C(=O)NC(C)(C)C (centres undefined) [Nelfinavir]
Second: CCCc1nc(C(C)(C)O)c(C(=O)O)n1Cc1ccc(-c2ccccc2-c2nn[nH]n2)cc1 [Olmesartan]
The LC retention time of the first is 3.1-fold lower: 1.55 min for the first, 4.76 min for the second.

Going from `CC(=O)OCC=C(C)CCC=C(C)C` [Nerylacetate] to `CC(=O)OCC[C@H](N)C(=O)O` [O-Acetyl-L-homoserine], the LC retention time rises from 0.99 min to 7.6 min (7.7-fold).

Going from `O=C(CCNNC(=O)c1ccncc1)NCc1ccccc1` [Nialamide] to `O=C(O)CCc1nc(-c2ccccc2)c(-c2ccccc2)o1` [Oxaprozin], the LC retention time falls from 1.69 min to 1.11 min (1.5-fold).

Compared with `NC(=O)c1cccnc1` [Nicotinamide], `O=C(O)c1cccnc1` [Nicotinic acid] is 2.4-fold higher in LC retention time: 1.7 min for the first, 4.01 min for the second.

`COC(=O)C1=C(C)NC(C)=C(C(=O)OC)C1c1ccccc1[N+](=O)[O-]` [Nifedipine] and `CCOC(=O)C1=C(C)NC(C)=C(C(=O)OC)C1c1cccc([N+](=O)[O-])c1` (centres undefined) [Nitrendipine] are within 1.5-fold of each other in LC retention time: 1.02 min for the first, 0.95 min for the second.

Compared with `Cn1c(NCCN(CCO)CCCc2ccc([N+](=O)[O-])cc2)cc(=O)n(C)c1=O` [Nifekalant], `CN1C(=O)CN=C(c2ccccc2)c2cc([N+](=O)[O-])ccc21` [Nimetazepam] is 3.3-fold lower in LC retention time: 3.21 min for the first, 0.98 min for the second.

`COCCOC(=O)C1=C(C)NC(C)=C(C(=O)OC(C)C)C1c1cccc([N+](=O)[O-])c1` (centres undefined) [Nimodipine] and `CCOP(=O)(OCC)Oc1ccc([N+](=O)[O-])cc1` [Paraoxon] are within 1.5-fold of each other in LC retention time: 0.94 min for the first, 1.02 min for the second.

`CC(=O)Oc1ccccc1C(=O)Nc1ncc([N+](=O)[O-])s1` [Nitazoxanide] and `O=C1CN=C(c2ccccc2)c2cc([N+](=O)[O-])ccc2N1` [Nitrazepam] are within 1.5-fold of each other in LC retention time: 1 min for the first, 1.2 min for the second.

First: CNC(=C[N+](=O)[O-])NCCSCc1csc(CN(C)C)n1 [Nizatidine]
Second: Cc1ncc([N+](=O)[O-])n1CC(O)CCl (centres undefined) [Ornidazole]
The LC retention time of the first is 4.3-fold higher: 4.65 min for the first, 1.08 min for the second.

Going from `COc1ccc(-c2cc(=O)c3c(OC)c(OC)c(OC)c(OC)c3o2)cc1OC` [Nobiletin] to `COc1ccc(Cc2nccc3cc(OC)c(OC)cc23)cc1OC` [Papaverine], the LC retention time rises from 1 min to 1.54 min (1.5-fold).

Compared with `c1cncc(C2CCCN2)c1` (centres undefined) [Nornicotine], `Cc1nccn1CC1CCc2c(c3ccccc3n2C)C1=O` (centres undefined) [Ondansetron] is 2.1-fold lower in LC retention time: 5.98 min for the first, 2.83 min for the second.

Compared with `CCCC(N)C(=O)O` (centres undefined) [Norvaline], `CC(=O)OCC(N)C(=O)O` (centres undefined) [O-Acetylserine] is 1.6-fold higher in LC retention time: 4.89 min for the first, 7.67 min for the second.

Compared with `COc1ccc2c(c1OC)C(=O)OC2C1c2c(cc3c(c2OC)OCO3)CCN1C` (centres undefined) [Noscapine], `COc1ccc2c3c1OC1C(=O)CCC4(O)C(C2)N(C)CCC314` (centres undefined) [Oxycodone] is 3.5-fold higher in LC retention time: 1.31 min for the first, 4.58 min for the second.

`NCCOP(=O)(O)O` [O-Phosphocolamine] and `NC(COP(=O)(O)O)C(=O)O` (centres undefined) [O-Phosphoserine] are within 1.5-fold of each other in LC retention time: 9.23 min for the first, 9.85 min for the second.

`NC(CCOC(=O)CCC(=O)O)C(=O)O` (centres undefined) [O-Succinylhomoserine] and `CC(NC(CCCN=C(N)N)C(=O)O)C(=O)O` (centres undefined) [Octopine] are within 1.5-fold of each other in LC retention time: 8.06 min for the first, 10.3 min for the second.

Going from `O=C(O)CCCCCCCCCCCCCCCCC(=O)O` [Octadecanedioic acid] to `CCCCCCCCCCCCCCCC(=O)OC(CC(=O)[O-])C[N+](C)(C)C` (centres undefined) [Palmitoylcarnitine cation], the LC retention time rises from 1.24 min to 3.23 min (2.6-fold).

`CCCCCCCC=O` [Octanal] and `CCCCCCCCO` [Octanol] are within 1.5-fold of each other in LC retention time: 6.98 min for the first, 8.47 min for the second.

Compared with `CN(C)CCC=C1c2ccccc2COc2ccc(CC(=O)O)cc21` [Olopatadine], `CCC(=O)NS(=O)(=O)c1ccc(-c2c(-c3ccccc3)noc2C)cc1` [Parecoxib] is 4.5-fold lower in LC retention time: 4.41 min for the first, 0.98 min for the second.

Compared with `CCCCCCCCCCCC(CC1OC(=O)C1CCCCCC)OC(=O)C(CC(C)C)NC=O` (centres undefined) [Orlistat], `CC(C)(CO)C(O)C(=O)NCCCO` (centres undefined) [Panthenol] is 2.1-fold higher in LC retention time: 0.89 min for the first, 1.9 min for the second.

First: COc1cc(C)c(Cc2cnc(N)nc2N)cc1OC [Ormetroprim]
Second: COc1ccnc(CS(=O)c2nc3ccc(OC(F)F)cc3[nH]2)c1OC (centres undefined) [Pantoprazole]
The LC retention time of the first is 3.5-fold higher: 4.19 min for the first, 1.21 min for the second.

Compared with `Nc1ccccc1S(=O)(=O)O` [Orthanilic acid], `O=C1Nc2ccc(Cl)cc2C(c2ccccc2)=NC1O` (centres undefined) [Oxazepam] is 1.8-fold lower in LC retention time: 2.52 min for the first, 1.37 min for the second.

Compared with `Clc1ccc(CON=C(Cn2ccnc2)c2ccc(Cl)cc2Cl)c(Cl)c1` [Oxiconazole], `O=C(O)C=Cc1ccc(Cn2ccnc2)cc1` [Ozagrel] is 2.8-fold higher in LC retention time: 1.08 min for the first, 2.99 min for the second.

Going from `CN1CCC23c4c5ccc(O)c4OC2C(=O)CCC3(O)C1C5` (centres undefined) [Oxymorphone] to `CC(C)(CO)C(O)C(=O)NCCC(=O)O` (centres undefined) [Pantothenic acid], the LC retention time falls from 5.5 min to 3.5 min (1.6-fold).
